Measurements taken from publication PMC9402538, “Rational design of a sensitivity-enhanced tracer for discovering efficient APC–Asef inhibitors” (Nature Communications, 2022).
Read-outs that look alike come from different tables or passages of the source. Where a SMILES comes first, the peptide text is derived from it. [ ]: non-standard residue; d: D form. The star is where a group is joined. Phe(4-tBu) = CC(C)(C)c1ccc(C[C@H](N)C(=O)O)cc1; Bpa = N[C@@H](Cc1ccc(C(=O)c2ccccc2)cc1)C(=O)O; Benzoyl(4-OMe) = COc1ccc(C(=O)*)cc1; Ala(cPr) = N[C@@H](CC1CC1)C(=O)O; 2Furoyl = O=C(c1ccco1)*; Acryloyl = C=CC(=O)*; X3 = O=C(c1ccncn1)*; Mpa = O=C(O)CCS

Experiments:
APC = biological target: T1, APC (Homo sapiens, UniProt P25054); test: FP competitive assay using tracer 1; type: binding
T1 sequence (P25054 303-739): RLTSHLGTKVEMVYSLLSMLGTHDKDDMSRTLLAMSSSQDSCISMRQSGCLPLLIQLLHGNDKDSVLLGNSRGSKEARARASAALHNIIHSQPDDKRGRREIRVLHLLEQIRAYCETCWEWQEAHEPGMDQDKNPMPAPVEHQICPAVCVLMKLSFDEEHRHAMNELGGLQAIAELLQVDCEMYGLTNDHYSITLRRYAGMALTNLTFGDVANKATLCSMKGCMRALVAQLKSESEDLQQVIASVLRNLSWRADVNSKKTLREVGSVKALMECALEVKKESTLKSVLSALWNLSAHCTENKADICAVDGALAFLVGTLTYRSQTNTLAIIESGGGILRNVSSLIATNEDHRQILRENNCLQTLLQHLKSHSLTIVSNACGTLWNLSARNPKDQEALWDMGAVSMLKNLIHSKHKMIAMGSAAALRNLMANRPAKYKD
Description: In our previous study, we established an FP assay for screening APC–Asef inhibitors using FITC-labeled tracer 1 (Ac–^176[…][FITC]^195–NH2)[16]. […]. However, their Kd values measured by isothermal titration calorimetry (ITC) actually vary up to more than 20 times[16],[17]. […].
FITC-labeled tracer peptides were obtained from Changzhou Kanglong Biotech Ltd. (Changzhou, Jiangsu, China). […]. The FP signal changes upon tracer binding were measured after 1.5 h of incubation using a Synergy neo microplate reader (BioTek Instruments, Inc.) and plotted against the protein concentration. The corresponding EC50 values were generated by fitting the curves with a nonlinear regression model. […]. To make a working solution, APC (303–739) was diluted in FP buffer (50 mM HEPES, pH 7.5, 300 mM NaCl, 1 mM EDTA, 1 mM DTT). […] The FP signals were measured after 1.5 h of incubation at room temperature using a Synergy neo microplate reader. Three controls were included on each plate, i.e., blank (without protein and tracer), 100% inhibition (free tracer only), and 0% inhibition (protein/tracer complex only) controls. All experiments were performed in triplicate. The IC50 values of peptides were calculated by nonlinear regression analysis using GraphPad Prism 7.0 software.

APC (303–739) = biological target: T2, APC (303–739) (Homo sapiens, UniProt P25054); test: FP competitive assay using tracer 7; type: binding
T2 sequence (P25054 303-739): T1 sequence (P25054 303-739)
Description: FITC-labeled tracer peptides were obtained from Changzhou Kanglong Biotech Ltd. (Changzhou, Jiangsu, China). […]. The FP signal changes upon tracer binding were measured after 1.5 h of incubation using a Synergy neo microplate reader (BioTek Instruments, Inc.) and plotted against the protein concentration. The corresponding EC50 values were generated by fitting the curves with a nonlinear regression model. […]. To make a working solution, APC (303–739) was diluted in FP buffer (50 mM HEPES, pH 7.5, 300 mM NaCl, 1 mM EDTA, 1 mM DTT). The diluted APC protein (91 μL) was combined with a serial dilution of peptides (4 μL) and incubated at room temperature for 1 h, followed by the addition of 5 μL of 400 nM tracer 7. The FP signals were measured after 1.5 h of incubation at room temperature using a Synergy neo microplate reader. Three controls were included on each plate, i.e., blank (without protein and tracer), 100% inhibition (free tracer only), and 0% inhibition (protein/tracer complex only) controls. All experiments were performed in triplicate. The IC50 values of peptides were calculated by nonlinear regression analysis using GraphPad Prism 7.0 software.

[1] = Repeat 1, Table 3 source data, read-out: IC50(μM) Repeat 1
[2] = Repeat 2, Table 3 source data, read-out: IC50(μM) Repeat 2
[3] = Repeat 3, Table 3 source data, read-out: IC50(μM) Repeat 3
[4] = mean of 3 repeats, Table 3 source data, read-out: IC50(μM) mean
[5] = tracer 7, mean of three repeats, read-out: IC50 mean
[6] = tracer 7, read-out: IC50 Repeat 1
[7] = tracer 7, read-out: IC50 Repeat 2
[8] = tracer 7, read-out: IC50 Repeat 3

| Compound | IC50 (APC (303–739); [1]) [µM] | IC50 (APC (303–739); [2]) [µM] | IC50 (APC (303–739); [3]) [µM] | IC50 (APC (303–739); [4]) [µM] | IC50 (APC (303–739); [5]) [µM] | IC50 (APC (303–739); [6]) [µM] | IC50 (APC (303–739); [7]) [µM] | IC50 (APC (303–739); [8]) [µM] | also measured |
| --- | --- | --- | --- | --- | --- | --- | --- | --- | --- |
| CC(C)C[C@H](NC(=O)[C@H](CO)NC(=O)[C@H](CCC(=O)O)NC(=O)CNC(=O)[C@H](C)NC(=O)c1ccco1)C(=O)N[C@@H](Cc1ccc(O)cc1)C(=O)N[C@@H](Cc1ccc(C(=O)c2ccccc2)cc1)C(N)=O [MAI-454] (2Furoyl-AGESLY[Bpa]-NH2) |  |  |  |  |  |  |  |  | IC50 (APC): 0.48 ± 0.15 µM |
| C=CC(=O)N[C@@H](C)C(=O)NCC(=O)N[C@@H](CCC(=O)O)C(=O)N[C@@H](CO)C(=O)N[C@@H](CC(C)C)C(=O)N[C@@H](Cc1ccc(O)cc1)C(=O)N[C@@H](CCC(=O)O)C(N)=O [MAI-501] (Acryloyl-AGESLYE-NH2) | 29.9 | 19.1 | 22 | 23.7 |  |  |  |  |  |
| CC(C)C[C@H](NC(=O)[C@H](CO)NC(=O)[C@H](CCC(=O)O)NC(=O)CNC(=O)[C@H](C)NC(=O)c1ccncn1)C(=O)N[C@@H](Cc1ccc(O)cc1)C(=O)N[C@@H](CCC(=O)O)C(N)=O [MAI-464] (X3-AGESLYE-NH2) |  |  |  |  |  |  |  |  | IC50 (APC (303–739); Supplementary Table 4, read-out: IC50, Tracer 7): 0.22 ± 0.01 µM |
| COc1ccc(C(=O)N[C@@H](C)C(=O)NCC(=O)N[C@@H](CCC(=O)O)C(=O)N[C@@H](CO)C(=O)N[C@@H](CC2CC2)C(=O)N[C@@H](Cc2ccc(O)cc2)C(=O)N[C@@H](CCC(=O)O)C(N)=O)cc1 [MAI-518] ({Benzoyl(4-OMe)}-AGES[Ala(cPr)]YE-NH2) |  |  |  |  | 0.0449 | 0.0454 | 0.047 | 0.0424 |  |
| COc1ccc(C(=O)N[C@@H](C)C(=O)NCC(=O)N[C@@H](CCC(=O)O)C(=O)N[C@@H](CO)C(=O)N[C@@H](CC(C)C)C(=O)N[C@@H](Cc2ccc(O)cc2)C(=O)N[C@@H](Cc2ccc(C(C)(C)C)cc2)C(N)=O)cc1 [MAI-522] ({Benzoyl(4-OMe)}-AGESLY[Phe(4-tBu)]-NH2) |  |  |  |  | 0.147 | 0.166 | 0.144 | 0.131 |  |
| CC(C)C[C@H](NC(=O)[C@H](CO)NC(=O)[C@H](CCC(=O)O)NC(=O)CNC(=O)[C@H](C)NC(=O)CCS)C(=O)N[C@@H](Cc1ccc(O)cc1)C(=O)N[C@@H](CCC(=O)O)C(N)=O [MAI-502] ([Mpa]AGESLYE-NH2) | 2.46 | 1.52 | 2.21 | 2.06 |  |  |  |  |  |
